From ChEMBL document CHEMBL3714720, “Inhibiting G-protein coupled receptor 6 kinase polypeptides” (2014)

target: G protein-coupled receptor kinase 6 (Homo sapiens, UniProt P43250); assay: Inhibition of human recombinant full-length GST-tagged human GRK6 using peptide substrate peptide-216 incubated for 7 hrs
Sequence (P43250 whole entry): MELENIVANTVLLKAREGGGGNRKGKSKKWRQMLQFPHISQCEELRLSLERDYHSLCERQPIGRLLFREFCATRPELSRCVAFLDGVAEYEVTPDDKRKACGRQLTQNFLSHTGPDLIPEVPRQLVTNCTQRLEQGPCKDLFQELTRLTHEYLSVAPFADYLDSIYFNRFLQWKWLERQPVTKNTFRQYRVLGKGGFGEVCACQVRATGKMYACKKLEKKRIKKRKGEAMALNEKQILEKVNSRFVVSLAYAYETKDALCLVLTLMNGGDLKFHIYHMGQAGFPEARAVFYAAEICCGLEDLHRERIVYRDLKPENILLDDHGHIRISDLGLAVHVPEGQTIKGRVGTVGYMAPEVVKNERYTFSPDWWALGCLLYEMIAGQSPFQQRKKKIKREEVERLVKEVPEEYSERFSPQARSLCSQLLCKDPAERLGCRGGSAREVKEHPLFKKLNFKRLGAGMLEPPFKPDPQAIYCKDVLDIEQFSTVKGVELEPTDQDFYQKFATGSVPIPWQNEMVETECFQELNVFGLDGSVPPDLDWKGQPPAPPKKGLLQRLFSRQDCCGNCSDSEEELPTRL

IC50	Compound
> 100 µM	CN(C)CCCOc1ccccc1-c1nnc(SCC(=O)O)[nH]1
> 100 µM	COc1c(F)cccc1-c1nnc(SCC(=O)O)[nH]1
> 100 µM	CC(=O)CSc1nnc(-c2cccc(C)c2)[nH]1
> 100 µM	COC(=O)c1ccccc1-c1nnc(SCC(=O)O)[nH]1
4.52 µM	COc1cc(-c2nnc(SCC(=O)O)[nH]2)ccc1F
> 100 µM	Cc1cccc(-c2nnc(SCC(=O)O)n2C)c1
> 100 µM	COc1ccc(-c2nnc(SCC(=O)O)[nH]2)c(OC)c1OC
77.5 µM	COc1ccc([N+](=O)[O-])cc1-c1nnc(SCC(=O)O)[nH]1
> 100 µM	O=C(O)CSc1nnc(-c2ccccc2OCCN2CCCC2)[nH]1
> 100 µM	COc1cc(N(C)C)ccc1-c1nnc(SCC(=O)O)[nH]1
> 100 µM	O=C(O)CSc1nnc(-c2cc(C(=O)O)ccc2O)[nH]1
0.751 µM	Cc1ccc(-c2nnc(SCC(=O)O)[nH]2)cc1[N+](=O)[O-]
> 100 µM	COc1cccc(-c2nnc(SCC(=O)O)[nH]2)c1OC
> 100 µM	COc1ccc(-c2nnc(SCC(=O)O)[nH]2)c(OC)c1C
> 100 µM	COc1cccc(-c2nnc(SCC(=O)O)[nH]2)c1OCc1ccccc1
> 100 µM	O=C(O)CSc1nnc(-c2ccccc2C(=O)O)[nH]1
> 100 µM	COc1cccc(O)c1-c1nnc(SCC(=O)O)[nH]1
> 100 µM	COc1ccc(-c2nnc(SCC(=O)O)[nH]2)c(Cl)c1OC
3.58 µM	Cc1cccc(Oc2ccc(-c3nnc(SCC(=O)O)[nH]3)cc2[N+](=O)[O-])c1
> 100 µM	Cc1cccc(-c2n[nH]c(SCC(N)=O)n2)c1
> 100 µM	Cc1cccc(-c2nnc(SCCC(=O)O)n2C)c1
> 100 µM	O=C(O)CSc1nnc(-c2ccccc2N2CCOCC2)[nH]1

IC50	Compound
> 100 µM	CN(C)c1ccc(-c2nnc(SCC(=O)O)[nH]2)cc1
> 100 µM	NC(=O)c1ccccc1-c1nnc(SCC(=O)O)[nH]1
> 60 µM	Cc1coc(-c2ccccc2NS(=O)(=O)c2ccc(S(=O)(=O)N3CCCCCC3)cc2)c1
> 100 µM	COc1cc([N+](=O)[O-])ccc1-c1nnc(SCC(=O)O)[nH]1
> 100 µM	Cc1cccc(-c2nnc(SCC(=O)N(C)C)[nH]2)c1
> 70 µM	O=C(O)CSc1nnc(-c2cccc([N+](=O)[O-])c2O)[nH]1
> 100 µM	COc1ccc(OC)c(-c2nnc(SCC(=O)O)[nH]2)c1
> 100 µM	Cc1cccc(-c2nnc(SC(C)C(=O)O)n2C)c1 (centres undefined)
> 100 µM	COc1cc(-c2nnc(SCC(=O)O)[nH]2)c([N+](=O)[O-])cc1OC
14.1 µM	O=C(O)CSc1nnc(-c2cc([N+](=O)[O-])ccc2O)[nH]1
> 100 µM	COc1cccc(OC)c1-c1nnc(SCC(=O)O)[nH]1
10.3 µM	COc1ccc(NC(c2ccccn2)c2ccc3cccnc3c2O)cc1 (centres undefined)
1.05 µM	COc1ccc(-c2nnc(SCC(=O)O)[nH]2)cc1[N+](=O)[O-]
> 100 µM	Cc1cccc(-c2nnc(SCCC(=O)O)[nH]2)c1
> 74 µM	O=C(O)CSc1nnc(-c2cccc(C(=O)O)c2)[nH]1
3.3 µM	COc1cc(-c2nnc(SCC(=O)O)[nH]2)cc(F)c1O
> 100 µM	COC(=O)CSc1nnc(-c2cccc(C)c2)[nH]1
34.8 µM	COc1cc([N+](=O)[O-])cc(-c2nnc(SCC(=O)O)[nH]2)c1O
> 100 µM	O=C(O)COc1ccccc1-c1nnc(SCC(=O)O)[nH]1
> 100 µM	CN1CCN(c2ccc(-c3nnc(SCC(=O)O)[nH]3)c(F)c2)CC1
> 100 µM	COc1cc(OC)c(-c2nnc(SCC(=O)O)[nH]2)cc1OC
> 100 µM	COc1cc(O)cc(OC)c1-c1nnc(SCC(=O)O)[nH]1
